Assay [1] has as its system db/db mice. The experiment in a line: 24 h urine microalbumin in db/db mice. To be noted: 10 mg/kg once/day, 6 weeks, P<0.001. In kind it is in vivo, mouse. The text has this:
db/db mice are congenital obese type 2 DKD mice with spontaneous mutations in the leptin receptor (Leptin receptor, Lepr) due to a point mutation in the leptin receptor gene GT located on chromosome 4. The course of polyphagia, polyuria, diabetes and hyperglycemia is similar to that of humans, and it is currently the most widely used type 2 spontaneous animal model of DKD. The db/db mice have a series of complications with the aggravation of diabetes. The main pathological changes of renal tissue are the expansion of the glomerular mesangial interstitium, the thickening of the glomerular basement membrane, and the excessive accumulation of extracellular matrix. However, the glomerular mesangium of db/db mice changes relatively slowly, and the glomerular mesangium will not be dissolved or nodular glomerulosclerosis, and there is no progressive renal insufficiency. […]
db/db mice were tested for 24 h urine microalbumin in the 4th and 6th week after drug treatment. […] The absorbance value (OD value) was measured at 450 nm wavelength; the blank control hole was used for adjusting zero, the microalbuminuria standard concentration was used as the abscissa, the OD value as the ordinate, the standard curve regression equation was calculated, and on the basis of the regression equation and the sample's OD value, the concentration of the sample was determined.

Assay [2] deals with db/db mice. Description: Electron microscopy of kidney tissue in db/db mice. It is filed as in vivo, mouse. To be noted: 10 mg/kg, 6 weeks (TBN P<0.05; Losartan P<0.01). The text has this: db/db mice are congenital obese type 2 DKD mice with spontaneous mutations in the leptin receptor (Leptin receptor, Lepr) due to a point mutation in the leptin receptor gene GT located on chromosome 4. The course of polyphagia, polyuria, diabetes and hyperglycemia is similar to that of humans, and it is currently the most widely used type 2 spontaneous animal model of DKD. The db/db mice have a series of complications with the aggravation of diabetes. The main pathological changes of renal tissue are the expansion of the glomerular mesangial interstitium, the thickening of the glomerular basement membrane, and the excessive accumulation of extracellular matrix. However, the glomerular mesangium of db/db mice changes relatively slowly, and the glomerular mesangium will not be dissolved or nodular glomerulosclerosis, and there is no progressive renal insufficiency.
Six-week-old db/db mice were purchased, and start the administration after adaptive feeding for 1 week (i.e., 7-week-old). TBN is administered twice a day (fixed by starting from 9:00-10:00 am and 3:00-4:00 pm, with an interval of 6 hours), and the positive control drug Losartan was administered once a day (fixed at 9:00-10:00 am) for 6 weeks.
After the mice were executed, the renal cortex was quickly taken with sharp blade (performed on ice); fixed with 2.5% glutaraldehyde (pH 7.4) at 4° C. for 6 h; then fixed for 2 h in a stationary liquid having 1:1 of 0.2 mmol/L PBS and 2% osmic acid, and dehydrated with gradient acetone at 4° C., 10 min for each of 50%, 70%, 90% acetone, then dehydrated with 100% acetone at room temperature twice, each time 15 min; in 1:1 acetone and Epon812 epoxy resin embedded mixed liquid, soaked at room temperature for 30 min; then dipped through the pure furnishings overnight, the embedding agent was made enveloping into tissue blocks completely to replace the dehydrating agent; the samples were embedded in the embedder for ultra-thin slicing, placed at 35° C. for 12 h; placed at 45° C. for 12 h; placed at 60° C. for 48 h; placed in a 37° C. oven for 36 h, in a 60° C. oven for 36 h; 1.5 μm semi-slice was prepared with an ultra-thin slicer; positioning under optical microscope, a trapeter having a top area of about 1 mm^2 was shaped to prepare 60-70 nm thick ultra-thin slices; dyed in dark with acetate hydroxide liquid for 10 min, and dyed in lead-stained citrate for 10 min.

Assay [3] concerns STZ-induced DKD rats. Description: Masson staining, interstitial fibrosis index, STZ-induced DKD rats. To be noted: 10 mg/kg once/day, P<0.05 vs vehicle. It is filed as in vivo, rat. As to the method: (§1) Before the injection, the rats were fasted for 12 hours without water. After weighing, the rats were injected with 55 mg/kg STZ intraperitoneally (STZ needs to be injected quickly, and the injection was completed within 10 minutes), and then returned to the cage to ensure that the rats had sufficient drinking water for 24 hours. Rats were injected with an equal volume of citrate buffer (pH 4.5). After STZ injection for 3 weeks, blood was collected from the tail vein, and blood glucose ≥16.7 mmol/L was used as the criteria for the standard of the rats.
(§2) The route of administration is intragastric administration. TBN was administered twice a day (fixed at 9:00-10:00 am and 3:00-4:00 pm), and Losartan was administered once a day (fixed at 9:00-10:00 am) continuously for 6 weeks.
At the end of the experiment, the kidney tissues were quickly separated, fixed with 4% paraformaldehyde and embedded in paraffin, serially sliced, 5 μm each, dried at 37° C. for 1 h, and then subjected to Masson staining. The process is briefly as follows: paraffin sections are taken out of the 65° C. oven and immediately put in xylene for dewaxing and gradient alcohol rehydration, according to the kit instructions, add reagent A (a mixture of equal amounts of A1 and A2) for dyeing for 8 min; then use Reagent B differentiates and reagent C turns blue; reagent D stains for 7 min; reagent E washes for 1 min; reagent F washes for 1 min; reagent G stains for 1 min; dehydrated with 95% ethanol and absolute ethanol, transparent xylene, sealed with neutral gum piece.

The subject of assay [4] is STZ-induced DKD rats. The experiment in a line: PAS staining, glomerular sclerosis index, STZ-induced DKD rats. In kind it is in vivo, rat. To be noted: all doses of TBN (10, 30, 60 mg/kg twice/day); Losartan 10 mg/kg once/day; 6 weeks; P<0.001 vs Vehicle. The protocol: as §1, §2
At the end of the experiment, kidney tissues were quickly separated, fixed with 4% paraformaldehyde and embedded in paraffin, serially sliced, 5 μm each, dried at 37° C. for 1 h, and then stained with PAS. The process is briefly as follows: paraffin sections are taken out of the 65° C. oven and immediately placed in xylene for deparaffinization and gradient alcohol rehydration, followed by periodic acid treatment for 5 min and Schiff treatment for 10 min, and then differentiation is performed with differentiation solution for 10 s. […]

Assay [5] relates to STZ-induced DKD rats. The experiment in a line: HE staining of kidney tissue, STZ-induced SD rat DKD model. In kind it is in vivo. The note with it: 10 mg/kg i.g. once/day, 6 weeks. As to the method: as §1, §2
At the end of the experiment, kidney tissues were quickly separated, fixed with 4% paraformaldehyde and embedded in paraffin, serially sliced, 5 μm each, dried at 37° C. for 1 h, and then stained with hematoxylin and eosin (HE). The process is briefly as follows: paraffin sections were taken out of the 65° C. oven and immediately put in xylene to dewax and rehydrated with gradient alcohol, stained with hematoxylin staining solution for 10 minutes, and microscopically controlled alcohol differentiation with 1% hydrochloric acid was performed until the chromatin of the nucleus and the nucleus becomes clear; 1% ammonia water-ethanol solution is blue; 0.5% eosin Y-ethanol solution is stained for 3 min, and finally dehydrated routinely, mounted, and the tissue morphology changes are observed under a light microscope. […] The glomerular volume of rats in the DKD group of the Vehicle group increased, the mesangial area was diffusely widened, the mesangial cells were proliferated, the capillary loops were expanded, the mesangial matrix increased, and the glomerular capillary basement membrane was irregularly thickened. Renal pathological changes such as vacuole deformation, shedding of renal tubular epithelial cells and infiltration of a large number of inflammatory cells (FIG. 9A).

Assay [6] has as its system db/db mice. The experiment in a line: Urinary albumin/creatinine ratio in db/db mice, TBN alone and in combination. The note with it: TBN 30 mg/kg, Losartan 10 mg/kg, TBN+Losartan (FIG. 17). In kind it is in vivo, mouse. The protocol: Grouping and dosing are the same as in Example 9. At the end of the experiment, 24 h urine samples were collected, antiseptic treatment was performed to all urine specimens with toluene, 24 h urine was centrifuged to remove precipitation and placed in a 1.5 mLEP tube and then placed in a refrigerator at −20° C. for later use, urinary albumin content was measured with ELISA kits, urine creatinine levels were detected by use of an automatic biochemical analyzer, and the ratio of both was calculated. The results as shown in FIG. 19 indicate that the ratio of urinary microalbumin to creatinine in DB/DB group was higher than that in wt/wt group, and the db/db mice 24 h urinary albumin creatinine ratio decreased in TBN group, losartan group and TBN-losartan combination group. Referring to this method, metformin (150 mg/kg, qd), and HIF-PH inhibitor roxadustat (10 mg/kg, once 2 every days) were given via oral administration, the combination groups of TBN with respectively metformin and roxadustat also reduce 24 h urinary albumin creatinine ratio.

Assay [7] deals with STZ-induced DKD rats. Description: Serum biochemical parameters of STZ-induced DKD rats. It is filed as in vivo, rat. The note with it: six weeks after administration, dose-dependent. The protocol: (§3) SD rats (200±10 g) were used as model animals, which were fasted for 12 h before injection. STZ was dissolved in citrate buffer at 1% concentration, and rats were fasted and intraperitoneally injected with 55 mg/kg STZ and placed in the cage, the rats being ensured with adequate water intake for 24 h. STZ injections need to be fast and complete within 10 minutes of injection. The normal control group was injected with an equal volume of pH 4.5 citric acid-sodium citrate buffer. The state of the animals (multiple drinking and polyuria) was observed. After 3 weeks of STZ injection, blood was collected from the tail vein, and fasting blood glucose ≥16.7 mmol/L was measured as the standard for diabetic nephropathy in rats.
(§4) DKD rats were randomly assigned to 6 groups and given with different drugs. After 6 weeks of administration, the experiment was terminated and the protective effect of the drug on DKD rats was observed.
Six weeks after the administration, the rats were anesthetized, and the blood was taken from the abdominal aorta, and, after standing for 1 hour, was centrifuged at 3000 rmp for 10 min and stored at −70° C. Serum levels of creatinine, urea nitrogen, cholesterol and triglycerides were measured using an automated biochemical analyzer.

In assay [8] the test system is STZ-induced DKD rats. Description: Blood glucose and urine protein in STZ-induced DKD rats. In kind it is in vivo, rat. As to the method: as §3, §4
During the experiment, the blood glucose of the rats was monitored after the completion of the modeling and after the completion of the administration, and urine protein was collected once at 24 hour.

Assay [9] deals with STZ-induced DKD rats. The experiment in a line: Kidney index of STZ-induced DKD rats. To be noted: after 6 weeks of administration. It is filed as in vivo, rat. The protocol: as §3, §4
After 6 weeks of administration, the kidney tissue was uniformly separated by an autoclave surgical instrument, and washed with normal saline. After the filter paper was blotted, the fine balance was weighed, and then stored in a refrigerator at −80° C. for use. Kidney index (relative to kidney weight) is kidney weight (mg)/body weight (g)[…].

Assay [10] has as its system STZ-induced DKD rats. Description: Retinopathy of STZ-induced DKD rats. The note with it: DKD rats after treatment, Table 1 (FIG. 5). In kind it is in vivo, rat. The protocol:
as §3, §4
During the experiment, the retinopathy of rats was observed during daily administration, and the dates of retinopathy in different groups of rats were recorded.

For assay [11], the system named is STZ-induced DKD rats. The experiment in a line: Body weight, water intake and food intake of STZ-induced DKD rats. In kind it is in vivo, rat. The protocol: as §3, §4
The general condition and body weight changes after rat modeling were observed weekly. The general conditions include the activity, mental state, coat color, diet, water intake and urine volume of the rats. The amount of water and the amount of feed were recorded weekly.

For a further assay, the system named is EPO mRNA. Description: EPO mRNA by RT-PCR in CoCl2-induced HepG2 cell hypoxia model. To be noted: hypoxia model caused by cobalt dichloride, concentration not given.

In the case of `CCCCc1nc(Cl)c(CO)n1Cc1ccc(-c2ccccc2-c2nn[nH]n2)cc1` [Losartan, reference compound], the “24 h urine microalbumin production” value in the assay on db/db mice [1] is listed as “significantly reduced”. Besides, the “thickness of the glomerular base film” value with db/db mice [2] is reported as “significantly reduced”. The interstitial fibrosis index entry in the assay with STZ-induced DKD rats [3] is on record as “significantly reduced”. In addition, in the assay on STZ-induced DKD rats [4], the glomerular sclerosis index result was “significantly reduce”. Besides, in the assay with STZ-induced DKD rats [5], the glomerular area entry is reported as “did not significantly reduce” and the “renal tissue damage (HE)” value was “improved”. In the assay with db/db mice [6], the “24 h urinary albumin creatinine ratio” value is given as “decreased”.
In the case of `Cc1nc(/C=[N+](\[O-])C(C)(C)C)c(C)nc1/C=[N+](\[O-])C(C)(C)C` [TN-2], in the assay with STZ-induced DKD rats [7], the serum cholesterol result is “significantly reduce”, the serum creatinine result is listed as “significantly reduce”, the serum triglyceride result is recorded as “significantly reduce” and the serum urea nitrogen result is given as “significantly reduce”. The “urinary protein content in urine” value in the assay with STZ-induced DKD rats [8] (24 hour urine, DKD rats) was “significantly reduced”. The blood glucose result in the assay with STZ-induced DKD rats [8] (after 6 weeks of treatment) is reported as “significantly decreased”. Besides, in the assay with STZ-induced DKD rats [9], the kidney index entry is “significantly reduced”. Moreover, in the assay with STZ-induced DKD rats [10], the number of retinopathy entry is on record as “reduced” and the “time when retinopathy occurred” value is listed as “relatively delayed”. Further, the body weight entry with STZ-induced DKD rats [11] (STZ-induced diabetic nephropathy rats, FIG. 1a) is on record as “no effect”. The water intake entry with STZ-induced DKD rats [11] (vs model group, FIG. 1b) is listed as “significantly lower”. Besides, the food intake result in the assay on STZ-induced DKD rats [11] (vs model group, FIG. 1c) is reported as “significantly lower”. Besides, the “expression of EPO mRNA” value in the assay with EPO mRNA is reported as “increase”.

The values above are taken from patent US12377095B2, “Use of ligustrazine nitrone derivatives in treatment and prevention of diabetic complication diseases” (QINGDAO HAILAN PHARMACEUTICALS CO., LTD., priority 2019, dated 2025).
